These are literature values, as cited in EP3721896B1, “EPIDERMAL GROWTH FACTOR (EGF) AND VARIANTS THEREOF FOR TREATING OR PREVENTING INFLAMMATORY DEMYELINATING DISORDERS” (Scalabrino, Giuseppe, priority 2019, dated 2023).

For this data set, the system named is experimental autoimmune encephalomyelitis (EAE). The settings on record: administered alone; Lewis rat; from EP1870106A2.

For GHRP-6, the “Effect on course of EAE as compared to placebo” value is reported as “no effect was observed”.
